Converted amounts (≈) assume the structure as drawn.
Experiments:
Type in all cases: functional
Staphylococcus aureus [1] = assay: Antibacterial activity against Staphylococcus aureus after 3 to 7 days by cup diffusion method
Bacillus subtilis [2] = assay: Antibacterial activity against Bacillus subtilis after 3 to 7 days by cup diffusion method
Escherichia coli [3] = assay: Antibacterial activity against Escherichia coli after 3 to 7 days by cup diffusion method
Pseudomonas aeruginosa [4] = assay: Antibacterial activity against Pseudomonas aeruginosa after 3 to 7 days by cup diffusion method
Mycolicibacterium phlei [5] = assay: Antibacterial activity against Mycobacterium phlei clinical isolate after 3 to 7 days by cup diffusion method
[6] = test system: Aggregatibacter actinomycetemcomitans; assay: Antibacterial activity against Aggregatibacter actinomycetemcomitans ATCC 29524 after 3 to 7 days by cup diffusion method
Staphylococcus aureus [7] = assay: Antibacterial activity against Staphylococcus aureus assessed as zone of inhibition at 10 mg/ml after 3 to 7 days by cup diffusion method; details: read-out: IZ
Bacillus subtilis [8] = assay: Antibacterial activity against Bacillus subtilis assessed as zone of inhibition at 10 mg/ml after 3 to 7 days by cup diffusion method; details: read-out: IZ
Escherichia coli [9] = assay: Antibacterial activity against Escherichia coli assessed as zone of inhibition at 10 mg/ml after 3 to 7 days by cup diffusion method; details: read-out: IZ
Pseudomonas aeruginosa [10] = assay: Antibacterial activity against Pseudomonas aeruginosa assessed as zone of inhibition at 10 mg/ml after 3 to 7 days by cup diffusion method; details: read-out: IZ
Mycolicibacterium phlei [11] = assay: Antibacterial activity against Mycobacterium phlei clinical isolate assessed as zone of inhibition at 10 mg/ml after 3 to 7 days by cup diffusion method; details: read-out: IZ
[12] = test system: Aggregatibacter actinomycetemcomitans; assay: Antibacterial activity against Aggregatibacter actinomycetemcomitans ATCC 29524 assessed as zone of inhibition at 10 mg/ml after 3 to 7 days by cup diffusion method; details: read-out: IZ
Escherichia coli [13] = assay: Antibacterial activity against Escherichia coli
Staphylococcus aureus [14] = assay: Antibacterial activity against Staphylococcus aureus
[15] = Staphylococcus aureus, read-out: MIC
[16] = Bacillus subtilis, read-out: MIC
[17] = Escherichia coli, read-out: MIC
[18] = Pseudomonas aeruginosa, read-out: MIC
[19] = Mycolicibacterium phlei, read-out: MIC
[20] = Aggregatibacter actinomycetemcomitans, ATCC 29524, read-out: MIC

| Structure (SMILES) | zone of inhibition at 10000 µg/mL (Staphylococcus aureus [7]) [mm] | zone of inhibition at 10000 µg/mL (Bacillus subtilis [8]) [mm] | zone of inhibition at 10000 µg/mL (Escherichia coli [9]) [mm] | zone of inhibition at 10000 µg/mL (Pseudomonas aeruginosa [10]) [mm] | zone of inhibition at 10000 µg/mL (Mycolicibacterium phlei [11]) [mm] | zone of inhibition at 10000 µg/mL [12] [mm] | MIC (Escherichia coli [13]) [µg/mL] | MIC (Staphylococcus aureus [14]) [µg/mL] | other results |
| --- | --- | --- | --- | --- | --- | --- | --- | --- | --- |
| CCn1cc(-c2nc(NC(=O)CCl)n[nH]2)c(=O)c2cc(Br)c(C)nc21 | 20 to 40 | 20 to 40 | 20 to 40 | 20 to 40 | 20 to 40 | 20 to 40 |  |  | MIC (Staphylococcus aureus [1]; [15]): 3.68 to 6.3 µM (≈ 1.57 to 2.68 µg/mL); MIC (Bacillus subtilis [2]; [16]): 3.68 to 6.3 µM (≈ 1.57 to 2.68 µg/mL); MIC (Escherichia coli [3]; [17]): 3.68 to 6.3 µM (≈ 1.57 to 2.68 µg/mL); MIC (Pseudomonas aeruginosa [4]; [18]): 3.68 to 6.3 µM (≈ 1.57 to 2.68 µg/mL); MIC (Mycolicibacterium phlei [5]; [19]): 3.68 to 6.3 µM (≈ 1.57 to 2.68 µg/mL); MIC [6, 20]: 3.68 to 6.3 µM (≈ 1.57 to 2.68 µg/mL) |
| CN1CCN(Cn2nc3c(F)cc4c(=O)c(C(=O)O)cn(C5CC5)c4n3c2=S)CC1 |  |  |  |  |  |  | 0.125 to 8 (≈ 0.289 to 18.5 µM) | 0.125 to 8 (≈ 0.289 to 18.5 µM) |  |
| CCn1cc(-c2nc(NC(=O)c3ccc(OC)cc3)n[nH]2)c(=O)c2cc(Br)c(C)nc21 | 20 to 40 | 20 to 40 | 20 to 40 | 20 to 40 | 20 to 40 | 20 to 40 |  |  | MIC (Staphylococcus aureus [1]; [15]): 3.68 to 6.3 µM (≈ 1.78 to 3.04 µg/mL); MIC (Bacillus subtilis [2]; [16]): 3.68 to 6.3 µM (≈ 1.78 to 3.04 µg/mL); MIC (Escherichia coli [3]; [17]): 3.68 to 6.3 µM (≈ 1.78 to 3.04 µg/mL); MIC (Pseudomonas aeruginosa [4]; [18]): 3.68 to 6.3 µM (≈ 1.78 to 3.04 µg/mL); MIC (Mycolicibacterium phlei [5]; [19]): 3.68 to 6.3 µM (≈ 1.78 to 3.04 µg/mL); MIC [6, 20]: 3.68 to 6.3 µM (≈ 1.78 to 3.04 µg/mL) |
| CC1CNCCN1Cn1nc2c(F)cc3c(=O)c(C(=O)O)cn(C4CC4)c3n2c1=S (configuration not stated) |  |  |  |  |  |  | 0.125 to 0.5 (≈ 0.289 to 1.16 µM) | 0.125 to 0.5 (≈ 0.289 to 1.16 µM) |  |
| CCn1cc(-c2nc(/N=C/c3ccc(Br)cc3)n[nH]2)c(=O)c2cc(Br)c(C)nc21 | 20 to 40 | 20 to 40 | 20 to 40 | 20 to 40 | 20 to 40 | 20 to 40 |  |  | MIC (Staphylococcus aureus [1]; [15]): 3.68 to 6.3 µM (≈ 1.9 to 3.25 µg/mL); MIC (Bacillus subtilis [2]; [16]): 3.68 to 6.3 µM (≈ 1.9 to 3.25 µg/mL); MIC (Escherichia coli [3]; [17]): 3.68 to 6.3 µM (≈ 1.9 to 3.25 µg/mL); MIC (Pseudomonas aeruginosa [4]; [18]): 3.68 to 6.3 µM (≈ 1.9 to 3.25 µg/mL); MIC (Mycolicibacterium phlei [5]; [19]): 3.68 to 6.3 µM (≈ 1.9 to 3.25 µg/mL); MIC [6, 20]: 3.68 to 6.3 µM (≈ 1.9 to 3.25 µg/mL) |
| CCn1cc(-c2nc(/N=C/c3ccc(F)cc3)n[nH]2)c(=O)c2ccc(C)nc21 | 20 to 40 | 20 to 40 | 20 to 40 | 20 to 40 | 20 to 40 | 20 to 40 |  |  | MIC (Staphylococcus aureus [1]): >=0.031 - 32 ug ml-1; MIC (Bacillus subtilis [2]): >=0.031 - 32 ug ml-1; MIC (Escherichia coli [3]): >=0.031 - 32 ug ml-1; MIC (Pseudomonas aeruginosa [4]): >=0.031 - 32 ug ml-1; MIC (Mycolicibacterium phlei [5]): >=0.031 - 32 ug ml-1; MIC [6]: >=0.031 - 32 ug ml-1 |
| O=C(O)c1cn(C2CC2)c2c(cc(F)c3nn(CN4CCOCC4)c(=S)n32)c1=O |  |  |  |  |  |  | 0.125 to 8 (≈ 0.298 to 19.1 µM) | 0.125 to 8 (≈ 0.298 to 19.1 µM) |  |
| CCN(CC)Cn1nc2c(F)cc3c(=O)c(C(=O)O)cn(C4CC4)c3n2c1=S |  |  |  |  |  |  | 4 to 32 (≈ 9.87 to 78.9 µM) | 4 to 32 (≈ 9.87 to 78.9 µM) |  |
| CCN1CCN(Cn2nc3c(F)cc4c(=O)c(C(=O)O)cn(C5CC5)c4n3c2=S)CC1 |  |  |  |  |  |  | 0.125 to 8 (≈ 0.28 to 17.9 µM) | 0.125 to 8 (≈ 0.28 to 17.9 µM) |  |
| CN(C)Cn1nc2c(F)cc3c(=O)c(C(=O)O)cn(C4CC4)c3n2c1=S |  |  |  |  |  |  | 4 to 32 (≈ 10.6 to 84.8 µM) | 4 to 32 (≈ 10.6 to 84.8 µM) |  |
| O=C(O)c1cn(C2CC2)c2c(cc(F)c3nn(CN4CCCCC4)c(=S)n32)c1=O |  |  |  |  |  |  | 0.125 to 8 (≈ 0.299 to 19.2 µM) | 0.125 to 8 (≈ 0.299 to 19.2 µM) |  |

Source: ChEMBL document CHEMBL4346717, “1,2,4-Triazole-quinoline/quinolone hybrids as potential anti-bacterial agents” (Eur J Med Chem, 2019)
